Where a name gives a salt, the structure may show the parent alone.
Key:
[1] = tested on: TGF-β induced [14C]-proline incorporation in rat mesangial cells; assay: [14C]-proline incorporation assay (collagen biosynthesis); format: cell-based; details: Rattus norvegicus, Mesangial cell, 44 h, inhibition of TGF-β1 (1 ng/ml) induced [14C]-proline incorporation, IRMC cells
[2] = MTS tetrazolium reduction cell viability assay; details: rat, rat mesangial cells (1097/IRMC cells), TGF-β1 stimulated, CC50 (μM), vs 1% DMSO vehicle

Row | SMILES | IC50 [1] | CC50 at 48 h [2]
1 | C#CCOc1ccc(/C=C/C(=O)Nc2ccccc2C#N)c(OCCN(C)C)c1OC [Example 77] | 4.69 µM | 26.5 µM
2 | COc1ccc(/C=C/C(=O)Nc2ccccc2C(=O)O)cc1COC1CCN(C)CC1 [Example 70, (E)-2-(3-(4-methoxy-3-(((1-methylpiperidin-4-yl)oxy)methyl)phenyl)acrylamido)benzoic acid] | 49.8 µM | > 300 µM
3 | COc1ccc(/C=C/C(=O)Nc2ccccc2C(=O)O)cc1OCCc1ccccn1 [Example 62, (E)-2-(3-(4-methoxy-3-(2-(pyridin-2-yl)ethoxy)phenyl)acrylamido)benzoic acid] | 49 µM | 321 µM
4 | C#CCOc1ccc(/C=C/C(=O)Nc2ccccc2C(=O)O)c(OC2CCNCC2)c1OC [Example 83, 2-[[(E)-3-[3-methoxy-2-(4-piperidyloxy)-4-prop-2-ynoxy-phenyl]prop-2-enoyl]amino]benzoic acid] | 32.5 µM | > 300 µM
5 | COc1cccc(/C=C/C(=O)Nc2cccc(C#N)c2)c1OCCN(C)C [Example 91, (E)-N-(3-cyanophenyl)-3-(2-(2-(dimethylamino)ethoxy)-3-methoxyphenyl)acrylamide] | 8.38 µM | 18.1 µM
6 | COc1ccc(/C=C/C(=O)Nc2cc(Cl)ccc2C(=O)O)c(OCCN(C)C)c1OC [Example 117, (E)-4-chloro-2-(3-(2-(2-(dimethylamino)ethoxy)-3,4-dimethoxyphenyl)acrylamido)benzoic Acid] | 21.4 µM | > 300 µM
7 | C#CCOc1ccc(/C=C/C(=O)Nc2ccccc2C(=O)NC2CCN(C)CC2)cc1OC [Example 36, (E)-2-(3-(3-methoxy-4-(prop-2-yn-1-yloxy)phenyl)acrylamido)-N-(1-methylpiperidin-4-yl)benzamide] | 15.8 µM | 15.2 µM
8 | C#CCNCc1ccc(/C=C/C(=O)Nc2ccccc2C(=O)O)cc1OC [Example 75, (E)-2-(3-(3-methoxy-4-((prop-2-yn-1-ylamino)methyl)phenyl)acrylamido)benzoic acid] | 27.6 µM | > 300 µM
9 | C#CCOc1ccc(/C=C/C(=O)Nc2ccccc2C(=O)NCc2ccccn2)cc1OC [Example 41, (E)-2-(3-(3-methoxy-4-(prop-2-yn-1-yloxy)phenyl)acrylamido)-N-(pyridin-2-ylmethyl)benzamide] | 24.8 µM | 341 µM
10 | COc1c(OCC2CC2)ccc(/C=C/C(=O)Nc2ccccc2C(=O)O)c1OCCN(C)C [Example 90, 2-[[(E)-3-[4-(cyclopropylmethoxy)-2-[2-(dimethylamino)ethoxy]-3-methoxy-phenyl]prop-2-enoyl]amino]benzoic acid] | 21.9 µM | > 300 µM
11 | COc1ccc(/C=C/C(=O)Nc2ccccc2C(=O)O)cc1OCc1cnn(C)c1 [Example 66, (E)-2-(3-(4-methoxy-3-((1-methyl-1H-pyrazol-4-yl)methoxy)phenyl)acrylamido)benzoic acid] | 17 µM | > 300 µM
12 | COCc1cc(/C=C/C(=O)Nc2ccccc2C(=O)O)ccc1OC [Example 73, (E)-2-(3-(4-methoxy-3-(methoxymethyl)phenyl)acrylamido)benzoic acid] | 33.1 µM | > 300 µM
13 | COc1cc(/C=C/C(=O)Nc2cccc(Cl)c2)ccc1OCC1COC1 [Example 147, (E)-N-(3-chlorophenyl)-3-(3-methoxy-4-(oxetan-3-ylmethoxy)phenyl)acrylamide] | 39.1 µM | > 300 µM
14 | C#CCOc1ccc(/C=C/C(=O)Nc2ccccc2C#N)c(OCCCN(C)C)c1OC [Example 87, (E)-N-(2-cyanophenyl)-3-[2-[3-(dimethylamino)propoxy]-3-methoxy-4-prop-2-ynoxy-phenyl]prop-2-enamide] | 3.69 µM | 12.1 µM
15 | CCc1ccc(/C=C/C(=O)Nc2ccccc2C(=O)O)cc1OC [Example 100, (E)-2-(3-(4-ethyl-3-methoxyphenyl)acrylamido)benzoic Acid] | 9.29 µM | 37 µM
16 | COc1ccc(C2CC2C(=O)Nc2ccc(F)cc2)c(OCCN(C)C)c1OC (stereo not drawn) [Example 122, 2-(2-(2-(dimethylamino)ethoxy)-3,4-dimethoxyphenyl)-N-(4-fluorophenyl)cyclopropane-1-carboxamide] | 17.2 µM | 234 µM
17 | C#CCOc1ccc(/C=C/C(=O)Nc2ccccc2Cl)cc1OC [Example 3, (E)-N-(2-chlorophenyl)-3-(3-methoxy-4-(prop-2-yn-1-yloxy)phenyl)acrylamide] | 3.94 µM | 71.1 µM
18 | C#CCOc1ccc(/C=C/C(=O)Nc2ccccc2C(=O)Nc2ccncc2)cc1OC [Example 44, (E)-2-(3-(3-methoxy-4-(prop-2-yn-1-yloxy)phenyl)acrylamido)-N-(pyridin-4-yl)benzamide] | 13.2 µM | 11.1 µM

Row | SMILES | IC50 [1] | CC50 at 48 h [2]
19 | COc1ccc(/C=C/C(=O)Nc2ccccc2F)c(OCCN(C)C)c1OC [Example 127, (E)-3-(2-(2-(dimethylamino)ethoxy)-3,4-dimethoxyphenyl)-N-(2-fluorophenyl)acrylamide] | 35.4 µM | 82.9 µM
20 | C#CCOc1ccc(/C=C/C(=O)Nc2ccccc2-n2cnc(C)n2)cc1CC [Example 114, (E)-3-(3-ethyl-4-(prop-2-yn-1-yloxy)phenyl)-N-(2-(3-methyl-1H-1,2,4-triazol-1-yl)phenyl)-acrylamide] | 14.3 µM | 82 µM
21 | C#CCOc1ccc(/C=C/C(=O)Nc2ccccc2C#N)c(OC2CCNC2)c1OC (stereo not drawn) [Example 82, (E)-N-(2-cyanophenyl)-3-(3-methoxy-4-prop-2-ynoxy-2-pyrrolidin-3-yloxy-phenyl)prop-2-enamide] | 3.42 µM | 13.5 µM
22 | COc1cc(/C=C/C(=O)Nc2ccc(F)cc2)ccc1OC1CCN(C)C1 (stereo not drawn) [Example 132, (E)-N-(4-fluorophenyl)-3-(3-methoxy-4-((1-methylpyrrolidin-3-yl)oxy)phenyl)actylamide trifluoroacetic acid salt] | 12 µM | 16.6 µM
23 | COc1ccc(C2CC2C(=O)Nc2cccc(S(C)(=O)=O)c2)cc1OCc1cnn(C)c1 (stereo not drawn) [Example 158, 2-(4-methoxy-3-((1-methyl-1H-pyrazol-4-yl)methoxy)phenyl)-N-(3-(methylsulfonyl)phenyl)cyclopropane-1-carboxamide] | 25.9 µM | 68.8 µM
24 | C#CCOc1ccc(/C=C/C(=O)Nc2ccccc2C(=O)NCCN(C)C)cc1OC [Example 30, (E)-N-(2-(dimethylamino)ethyl)-2-(3-(3-methoxy-4-(prop-2-yn 1 yloxy)phenyl)acrylamido) benzamide] | 11.8 µM | 37.2 µM
25 | COc1cc(/C=C/C(=O)Nc2ccccc2C(=O)O)ccc1OCCc1cccnc1 [Example 57, (E)-2-(3-(3-methoxy-4-(2-(pyridin-3-yl)ethoxy)phenyl)acrylamido)benzoic acid] | 9.37 µM | > 76.6 µM
26 | C#CCOc1ccc(/C=C/C(=O)Nc2cccc(C#N)c2)c(OCCN(C)C)c1OC [Example 76, (E)-N-(3-cyanophenyl)-3-[2-[2-(dimethylamino)ethoxy]-3-methoxy-4-prop-2-ynoxy-phenyl]prop-2-enamide] | 14.9 µM | 18.1 µM
27 | COc1cc(C2CC2C(=O)Nc2ccc(C#N)cc2)ccc1OC1CCN(C)C1 (stereo not drawn) [Example 137, N-(4-cyanophenyl)-2-(3-methoxy-4-((1-methylpyrrolidin-3-yl)oxy)phenyl)cyclopropane-1-carboxamide] | 15.4 µM | 30.8 µM
28 | C#CCOc1ccc(/C=C/C(=O)Nc2ccccc2C(=O)NC2CCNCC2)cc1OC [Example 49, (E)-2-(3-(3-methoxy-4-(prop-2-yn-1-yloxy)phenyl)acrylamido)-N-(piperidin-4-yl)benzamide] | 25.3 µM | 30.6 µM
29 | C#CCOc1ccc(/C=C/C(=O)Nc2ccccc2-c2cn(C)cn2)cc1OC [Example 26, (E)-3-(3-methoxy-4-(prop-2-yn-1-yloxy)phenyl)-N-(2-(1-methyl-1H-imidazol-4-yl)phenyl)acrylamide] | 13.5 µM | 190 µM
30 | CN1CCOc2cc(/C=C/C(=O)Nc3ccccc3C(=O)O)ccc21 [Example 110, (E)-2-(3-(4-methyl-3,4-dihydro-2H-benzo[b][1,4]oxazin-7-yl)acrylamido)benzoic acid] | 13.9 µM | > 300 µM
31 | C#CCOc1ccc(/C=C/C(=O)Nc2ccccc2Br)cc1OC [Example 4, (E)-N-(2-bromophenyl)-3-(3-methoxy-4-(prop-2-yn-1-yloxy)phenyl)acrylamide] | 4.32 µM | 323 µM
32 | C#CCOc1ccc(/C=C/C(=O)Nc2ccccc2C(=O)NCCN2CCOCC2)cc1OC [Example 35, (E)-2-(3-(3-methoxy-4-(prop-2-yn-1-yloxy)phenyl)acrylamido)-N-(2-morpholinoethyl)benzamide] | 37.4 µM | 301 µM
33 | C#CCOc1ccc(/C=C/C(=O)Nc2ccccc2-c2nnc(C)o2)cc1OC [Example 29, (E)-3-(3-methoxy-4-(prop-2-yn-1-yloxy)phenyl)-N-(2-(5-methyl-1,3,4-oxadiazol-2-yl)phenyl)-acrylamide] | 25.6 µM | > 300 µM
34 | COc1cc(/C=C/C(=O)Nc2ccccc2Cl)ccc1OCC1COC1 [Example 152, (E)-N-(2-chlorophenyl)-3-(3-methoxy-4-(oxetan-3-ylmethoxy)phenyl)acrylamide] | 38.2 µM | > 300 µM
35 | COc1cc(/C=C/C(=O)Nc2ccccc2C(=O)O)ccc1N1CCOCC1 [Example 103, (E)-2-(3-(3-methoxy-4-morpholinophenyl)acrylamido)benzoic acid trifluoroacetic acid salt] | 28 µM | 265 µM
36 | COc1cc(/C=C/C(=O)Nc2ccccc2C(=O)O)ccc1OCCc1ccncc1 [Example 59, (E)-2-(3-(3-methoxy-4-(2-(pyridin-4-yl)ethoxy)phenyl)acrylamido)benzoic acid] | 12.1 µM | 148 µM

Source: patent US11603349B2, “Anti-fibrotic compounds” (Certa Therapeutics Pty Ltd, priority 2017, dated 2023)
